Measured values: ChEMBL document CHEMBL3739426, “Synthesis and biological evaluation of novel 2-isoxazoline fused cyclopentane derivatives as potential antimicrobial and anticancer agents” (Medchemcomm, 2015)
In brackets after ≈: the same amount, converted by molar mass. Activity calls are given as the source filed them. The calls are words filed in the database; no cut-off is given here.

Legend:
MCF7 [1] = experiment: Induction of apoptosis in human MCF7 cells assessed as decrease of mitochondrial membrane potential after 12 hrs using JC-1 dye by fluorescence microscopic analysis; format: functional, cell-based
HeLa = experiment: Cytotoxicity against human HeLa cells after 48 hrs by MTT assay; format: functional, cell-based
MCF7 [2] = experiment: Induction of apoptosis in human MCF7 cells assessed dead cells at 10 ug/ml after 48 hrs using annexin V/propidium iodide staining by muse cell analyzer analysis (reference value: 1.04%); format: functional
MCF7 [3] = experiment: Induction of apoptosis in human MCF7 cells assessed late apoptotic cells at 5 ug/ml after 48 hrs using annexin V/propidium iodide staining by muse cell analyzer analysis (reference value: 11.89%); format: functional
Pseudomonas sp. = experiment: Antimicrobial activity against Pseudomonas sp. by cup plate diffusion method; format: functional
Candida albicans = experiment: Antimicrobial activity against Candida albicans by cup plate diffusion method; format: functional
MCF7 [4] = experiment: Induction of apoptosis in human MCF7 cells assessed as formation of cell membrane blebbing at 10 ug/ml after 48 hrs using acridine orange and ethidium bromide staining by light microscopic analysis; format: functional, cell-based
MCF7 [5] = experiment: Induction of apoptosis in human MCF7 cells assessed early apoptotic cells at 5 ug/ml after 48 hrs using annexin V/propidium iodide staining by muse cell analyzer analysis (reference value: 6%); format: functional
HT-29 = experiment: Cytotoxicity against human HT-29 cells after 48 hrs by MTT assay; format: functional, cell-based; conditions: HT-29, 48 h
MCF7 [6] = experiment: Induction of apoptosis in human MCF7 cells assessed late apoptotic cells at 10 ug/ml after 48 hrs using annexin V/propidium iodide staining by muse cell analyzer analysis (reference value: 11.89%); format: functional
MCF7 [7] = experiment: Cell cycle arrest in human MCF7 cells assessed as accumulation at G2/M phase at 10 ug/ml after 48 hrs using propidium iodide staining by flow cytometry analysis (reference value: 25.8%); format: functional
MCF7 [8] = experiment: Cell cycle arrest in human MCF7 cells assessed as accumulation at G2/M phase at 5 ug/ml after 48 hrs using propidium iodide staining by flow cytometry analysis (reference value: 25.8%); format: functional
MCF7 [9] = experiment: Cell cycle arrest in human MCF7 cells assessed as accumulation at S phase at 5 ug/ml after 48 hrs using propidium iodide staining by flow cytometry analysis (reference value: 12.7%); format: functional
MCF7 [10] = experiment: Cytotoxicity against human MCF7 cells after 48 hrs by MTT assay; format: functional, cell-based; conditions: MCF7, 48 h
MCF7 [11] = experiment: Cell cycle arrest in human MCF7 cells assessed as accumulation at S phase at 10 ug/ml after 48 hrs using propidium iodide staining by flow cytometry analysis (reference value: 12.7%); format: functional
Escherichia coli = experiment: Antimicrobial activity against Escherichia coli by cup plate diffusion method; format: functional
MCF7 [12] = experiment: Induction of apoptosis in human MCF7 cells assessed as formation of extremely condensed chromatin at 5 ug/ml after 48 hrs using acridine orange and ethidium bromide staining by light microscopic analysis; format: functional, cell-based
MCF7 [13] = experiment: Induction of apoptosis in human MCF7 cells assessed as formation of chromatin condensation at 10 ug/ml after 48 hrs using acridine orange and ethidium bromide staining by light microscopic analysis; format: functional, cell-based
MCF7 [14] = experiment: Induction of apoptosis in human MCF7 cells assessed early apoptotic cells at 10 ug/ml after 48 hrs using annexin V/propidium iodide staining by muse cell analyzer analysis (reference value: 6%); format: functional
MCF7 [15] = experiment: Cell cycle arrest in human MCF7 cells assessed as accumulation at G0/G1 phase at 5 ug/ml after 48 hrs using propidium iodide staining by flow cytometry analysis (reference value: 47.3%); format: functional
MCF7 [16] = experiment: Induction of apoptosis in human MCF7 cells assessed as formation of intact nuclei at 5 ug/ml after 48 hrs using acridine orange and ethidium bromide staining by light microscopic analysis; format: functional, cell-based
[17] = Cytotoxicity against human PC3 cells after 48 hrs by MTT assay; format: functional, cell-based; conditions: PC-3, 48 h
MCF7 [18] = experiment: Induction of apoptosis in human MCF7 cells assessed live cells at 5 ug/ml after 48 hrs using annexin V/propidium iodide staining by muse cell analyzer analysis (reference value: 81.07%); format: functional
A549 = experiment: Cytotoxicity against human A549 cells after 48 hrs by MTT assay; format: functional, cell-based; conditions: A549, 48 h
MCF7 [19] = experiment: Induction of apoptosis in human MCF7 cells assessed dead cells at 5 ug/ml after 48 hrs using annexin V/propidium iodide staining by muse cell analyzer analysis (reference value: 1.04%); format: functional
Priestia megaterium = experiment: Antimicrobial activity against Bacillus megaterium by cup plate diffusion method; format: functional
MCF7 [20] = experiment: Induction of apoptosis in human MCF7 cells assessed as formation of nuclear fragmentation at 10 ug/ml after 48 hrs using acridine orange and ethidium bromide staining by light microscopic analysis; format: functional, cell-based
MCF7 [21] = experiment: Induction of apoptosis in human MCF7 cells assessed live cells at 10 ug/ml after 48 hrs using annexin V/propidium iodide staining by muse cell analyzer analysis (reference value: 81.07%); format: functional
MCF7 [22] = experiment: Cell cycle arrest in human MCF7 cells assessed as accumulation at G0/G1 phase at 10 ug/ml after 48 hrs using propidium iodide staining by flow cytometry analysis (reference value: 47.3%); format: functional
Bacillus subtilis = experiment: Antimicrobial activity against Bacillus subtilis by cup plate diffusion method; format: functional

OC[C@@H]1C[C@H](CO)[C@@H]2C(c3ccc4ccccc4c3)=NO[C@H]12
Activity (MCF7 [1]): Dose-dependent effect
IC50 (HeLa): 24.5 µg/mL (≈ 82.4 µM)
Activity (MCF7 [2]): 0.61%
Activity (MCF7 [3]): 15.91%
MIC (Pseudomonas sp.): > 100 µg/mL
MIC (Candida albicans): > 100 µg/mL
Activity (MCF7 [4]): Active
Activity (MCF7 [5]): 24.94%
IC50 (HT-29): 14.3 µg/mL (≈ 48.1 µM)
Activity (MCF7 [6]): 18.85%
Activity (MCF7 [7]): 22.6%
Activity (MCF7 [8]): 24.8%
Activity (MCF7 [9]): 14.9%
IC50 (MCF7 [10]): 11.5 µg/mL (≈ 38.7 µM)
Activity (MCF7 [11]): 27.5%
MIC (Escherichia coli): > 100 µg/mL
Activity (MCF7 [12]): Active
Activity (MCF7 [13]): Active
Activity (MCF7 [14]): 48.32%
Activity (MCF7 [15]): 44.7%
Activity (MCF7 [16]): Active
IC50 [17]: 48.4 µg/mL (≈ 163 µM)
Activity (MCF7 [18]): 55.08%
IC50 (A549): > 50 µg/mL
Activity (MCF7 [19]): 4.06%
MIC (Priestia megaterium): 26 µg/mL (≈ 87.4 µM)
Activity (MCF7 [20]): Active
Activity (MCF7 [21]): 32.21%
Activity (MCF7 [22]): 35.7%
MIC (Bacillus subtilis): 26 µg/mL (≈ 87.4 µM)
